Tests used:
Assay type in all cases: cell-based, human
[1] = test system: THP-1 macrophages; test: Release of exosomal ADAM15 from differentiated THP-1 macrophages; settings: THP-1 macrophages incubated with LPS in serum-free medium for 18 h
Method: (§1) FIG. 9 verifies that the release of exosomal ADAM15 is further induced by LPS stimulation in differentiated THP-1 macrophages. […] THP-1 cells were incubated with PMA in serum-free medium for 24 h. Arrows indicate pro-ADAM15 and mature ADAM15, respectively. Total protein bands of exosomes were shown by Coomassie blue staining (middle penal). In the graph of the right panel, data are represented as the mean±standard deviation of three experiments. […] PMA-differentiated THP-1 cells were washed with PBS and further cultured for 2˜3 days. THP-1 macrophages were incubated with LPS in serum-free medium for 18 h. Exosomes were isolated from conditioned media. Arrows indicate pro-ADAM15 and mature ADAM15, respectively. Total protein bands of exosomes were shown by Coomassie blue staining (middle penal). The right panel represents the mean and standard deviation of three experiments. […] THP-1 cells were treated with or without PMA and/or LPS in serum-free medium for 18 h. […]
(§2) Cells were incubated with or without PMA in serum-free medium or medium containing 5% FBS for 24 h. […] Protein concentration was measured by a modified Bradford assay (Bio-Rad Laboratories, Hercules, Calif.). […] The tubes were then ultracentrifuged at 100,000×g for 2.5 h in a Beckman SW 55 Ti rotor, and fractions with different densities were sequentially collected from the top of the tube and analyzed for exosomes containing ADAM15.

[2] = test system: MCF-7 cells; test: Flow cytometric analysis of cell- and exosomal-surface expression of ADAM15; settings: flow cytometry; 5 ng/Ml PMA for 24 h
Method: FIG. 2 verifies that released ADAM15 is associated with exosomes, and exosome-mediated ADAM15 is secreted by PMA-stimulated PKC activation. […] Conditioned medium of MCF-7 cells treated with or without 5 ng/Ml PMA for 24 h was subjected to sequential centrifugation as follows: 300×g (P1), 1,200×g (P2), 10,000×g (P3), 100,000×g (P4), and 100,000×g after filtering through a 0.22-μm pore size filter (P4′). Pellets from each stage were subjected to western blotting analysis using an anti-ADAM15 cytoplasmic domain antibody. Arrows indicate pro-ADAM15 (P) and mature ADAM15 (M), respectively. […] Isolated microvesicles from conditioned medium of MCF-7 cells treated with 5 ng/Ml PMA were subjected to sucrose gradient centrifugation. Each fraction was concentrated prior to SDS-PAGE. […] After ultracentrifugation at 100,000×g, the pellets were analyzed by immunoblotting with antibody to ADAM15 cytoplasmic domain. […] Isolated exosomes were analyzed by immunoblotting with ADAM15 antibody. […] The percent changes in fluorescence intensity associated with the presence of ADAM15 are shown.
Flow cytometric analysis of exosomes was performed as previously described with minor modifications (Thery et al., 2001). […] Flow cytometry was performed on a FACSCalibur (BD Biosciences), and data were analyzed using WinMDI software version 2.8 (The Scripps Research Institute, La Jolla, Calif.).

[3] = test system: MCF-7 cells; test: ADAM15 release from MCF-7 cells into conditioned medium and levels in cell lysates (western blotting)
Method: FIG. 1 verifies that ADAM15 is released into the extracellular space. […] MCF-7 cells were incubated with 5 ng/Ml PMA in serum-free RPMI 1640 medium. P indicates pro-ADAM15 and M indicates mature ADAM15. In the results of the lower panel, data are represented as the mean±standard deviation of four experiments. *P<0.01; Student's t test. […] Cells were treated as described in the drawing. Arrows indicate pro-ADAM15 (P) and mature ADAM15 (M), respectively.
Cells were lysed in buffer containing 50 Mm Tris-HCl, pH 7.5, 5 mM EDTA, 150 mM NaCl, 1% Triton X-100, and protease inhibitor cocktail (Roche Applied Science, Indianapolis, Ind.) for 1 h at 4° C. and then centrifuged. The soluble portion of the lysate was used for western blotting, which was performed by separation of reduced or non-reduced samples on SDS-PAGE, followed by electroblotting to nitrocellulose membranes and detection of bound antibody by enhanced chemiluminescence (Amersham Biosciences, Pittsburgh, Pa.).
There are several studies showing that various membrane proteins are secreted into the extracellular space through ectodomain shedding or microvesicle release (van Kilsdonk et al., 2010). Here, we examined whether ADAM15 protein is released from human breast cancer MCF-7 cells into conditioned medium. Mature ADAM15 was detected in the conditioned medium by immunoblotting analysis with an antibody against ADAM15 extracellular domain (FIG. 1A). […] In MCF-7 cells, both the pro and mature forms of ADAM15 were detected. […] The mRNA levels of ADAM15 after PMA stimulation were also assessed. […] We further investigated whether released ADAM15 was generated by ectodomain shedding.

[4] = test system: HEK293F cells; test: Exosomal ADAM15 enrichment in transfected HEK293F cells (immunoblotting); settings: 5 ng/Ml PMA for 24 h
Method: FIG. 3 verifies that ADAM15-rich exosomes have a high binding affinity for integrin αvβ3 and prevents interactions between integrin αvβ3 and vitronectin. […] FIGS. 3B and 3C show immunoblotting analysis. Prior to exosome isolation, transfected cells were stimulated with or without 5 ng/Ml PMA for 24 h, and the isolated exosomes were analyzed by immunoblotting analysis with the indicated antibodies. The exosomes were incubated with purified integrin αvβ3 (FIG. 3B) or α5β1 (FIG. 3C), followed by ultracentrifugation. The precipitates were analyzed by immunoblotting analysis. In the graphs, the immunoblotting results are represented by the relative intensity. […] Exosomes were incubated with purified integrin αvβ3 on a vitronectin-coated plate, and bound integrins were detected by anti-integrin αvβ3 antibody. […] After 2-h incubation, the number of bound cells was determined by MTT assay (OD: 540 nm). […]
as §2

[5] = test system: MCF-7 cells; test: Semi-quantitative RT-PCR analysis of ADAM15 mRNA in MCF-7 cells; settings: 5 ng/Ml PMA for the indicated times
[6] = test system: MCF-7 cells; test: Exosome-associated ADAM15 release from MCF-7 cells (sequential centrifugation, immunoblotting); settings: 5 ng/Ml PMA for 24 h; 100,000×g pellet
Method: FIG. 2 verifies that released ADAM15 is associated with exosomes, and exosome-mediated ADAM15 is secreted by PMA-stimulated PKC activation. […] Conditioned medium of MCF-7 cells treated with or without 5 ng/Ml PMA for 24 h was subjected to sequential centrifugation as follows: 300×g (P1), 1,200×g (P2), 10,000×g (P3), 100,000×g (P4), and 100,000×g after filtering through a 0.22-μm pore size filter (P4′). Pellets from each stage were subjected to western blotting analysis using an anti-ADAM15 cytoplasmic domain antibody. Arrows indicate pro-ADAM15 (P) and mature ADAM15 (M), respectively. […] After ultracentrifugation at 100,000×g, the pellets were analyzed by immunoblotting with antibody to ADAM15 cytoplasmic domain. […] Isolated exosomes were analyzed by immunoblotting with ADAM15 antibody. […] The percent changes in fluorescence intensity associated with the presence of ADAM15 are shown.
as §2

[7] = test system: THP-1 cells; test: Release of exosomal ADAM15 from THP-1 cells; settings: THP-1 cells incubated with PMA in serum-free medium for 24 h
Method: as §1, §2

[8] = test system: MDAH-2774 cells; test: Effect of PKC inhibitor on secretion of exosome-associated ADAM15; settings: PMA and indicated concentrations of calphostin C for 24 h

For lipopolysaccharide [LPS], which “release of exosomal ADAM15” value [1] is on record?
The value was “enhanced”.

Which “exosomal-surface ADAM15” value [2] does the source give for CCCCCCCCCCCCCC(=O)O[C@@H]1[C@@H](C)[C@@]2(O)[C@@H](C=C(CO)C[C@]3(O)C(=O)C(C)=C[C@@H]23)[C@@H]2C(C)(C)[C@]12OC(C)=O [PMA, phorbol 12-myristate 13-acetate] here?
Its value is “increase”.

And the “plasma membrane-associated ADAM15” value [2]?
The value was “decrease”.

And the “ADAM15 release into conditioned medium” value ([3]; 5 ng/Ml PMA, serum-free RPMI 1640, antibody against ADAM15 extracellular domain)?
Its value is “largely increased”.

What about the “other membrane proteins ADAM10 and E-cadherin in cells” value ([3]; cell lysates after PMA stimulation) of the same compound?
Its value is “unchanged”.

What about the “pro and mature forms of ADAM15 in cells” value ([3]; cell lysates, time after PMA stimulation, barely detectable after 24 hrs) of the same compound?
The value was “decreased with time”.

And the “exosomal ADAM15 in exosomes of ADAM15-transfected cells” value [4]?
The value was “further exosomal enrichment”.

What about the “ADAM15 mRNA levels” value [5] of the same compound?
The value was “unchanged”.

What about the “amount of exosomal ADAM15” value [6] of the same compound?
The value was “increased”.

And the “release of exosomal ADAM15” value [7]?
The value was “effectively increased”.

Which “PMA-stimulated ADAM15 release” value [8] does the source give for calphostin C here?
The value was “successfully blocked”.

Source: US20140212949A1, “METHOD FOR PREPARING MICROVESICULAR ADAM15” (INDUSTRY-ACADEMIC COOPERATION FOUNDATION, YONSEI UNIVERSITY, priority 2011, published 2014)
